Holding throughout (assay type): biochemical
In one experiment the target is protein kinase C. As to the kind of experiment: enzyme assay of protein kinase C. To be noted: read-out: 50% inhibition at a concentration of, enzyme assay of protein kinase C.
The target in the next experiment is A-kinase (Homo sapiens, UniProt P17612). As to the kind of experiment: inhibition of the A-kinase. The settings on record: read-out: IC values of the inhibition of the A-kinase.
In another experiment the target is T1, G-kinase (Homo sapiens, UniProt Q13976).
T1 sequence (Q13976 1-671): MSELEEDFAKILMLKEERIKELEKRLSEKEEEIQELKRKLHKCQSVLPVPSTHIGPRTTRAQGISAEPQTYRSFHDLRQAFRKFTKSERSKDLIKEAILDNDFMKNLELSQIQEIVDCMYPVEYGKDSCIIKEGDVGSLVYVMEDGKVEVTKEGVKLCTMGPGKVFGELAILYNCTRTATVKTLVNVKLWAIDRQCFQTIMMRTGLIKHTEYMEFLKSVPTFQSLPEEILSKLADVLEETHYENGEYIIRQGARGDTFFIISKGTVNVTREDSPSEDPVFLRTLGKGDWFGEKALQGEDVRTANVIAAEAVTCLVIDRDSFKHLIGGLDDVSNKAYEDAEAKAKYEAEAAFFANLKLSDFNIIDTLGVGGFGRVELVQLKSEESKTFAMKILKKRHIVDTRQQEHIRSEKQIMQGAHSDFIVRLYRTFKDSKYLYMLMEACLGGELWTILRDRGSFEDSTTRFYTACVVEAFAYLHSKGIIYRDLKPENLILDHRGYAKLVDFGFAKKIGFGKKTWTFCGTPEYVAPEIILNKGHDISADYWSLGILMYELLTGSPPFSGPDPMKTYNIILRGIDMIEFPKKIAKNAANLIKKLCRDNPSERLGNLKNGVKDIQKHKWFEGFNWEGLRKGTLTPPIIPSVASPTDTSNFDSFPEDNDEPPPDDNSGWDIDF
Put plainly: inhibition of the G-kinase. The settings on record: read-out: IC values of the inhibition of the G-kinase.

A further experiment deals with MLC-kinase. As to the kind of experiment: inhibition of the MLC-kinase. To be noted: read-out: IC values of the inhibition of the MLC-kinase.

This passage reports IC50 results from patent US5380746A, “Bis-(1H-indol-3-YL)-maleinimide derivatives, processes for the preparation thereof and pharmaceutical compositions containing them” (Goedecke Aktiengesellschaft, priority 1989, dated 1995).

On to `Cn1cc(C2=C(c3c[nH]c4ccccc34)C(=O)NC2=O)c2ccccc21` [Example 1, 2-(1H-Indol-3-yl)-3-(1-methyl-1H-indol-3-yl)maleinimide], for which the IC50 on protein kinase C worked out at 0.14 µM; at A-kinase it was 77 µM; at G-kinase, 15 µM; at MLC-kinase, 4.5 µM.
